Measurements: patent publication US20250034106A1, “3-CYCLOAMINO-INDOLE COMPOUNDS AS SEROTONERGIC AGENTS USEFUL FOR THE TREATMENT OF DISORDERS RELATED THERETO” (Mindset Pharma Inc., priority 2021, published 2025)
Where two headings read alike, the source gives them in different places.

What was measured:
human 5-HT2A [1] = target: T1, human 5-HT2A (Homo sapiens (Human), UniProt P28223); assay: Human 5-HT2A radioligand binding assay ([3H]-ketanserin); conditions: competition with [3H]-ketanserin; read-out: h5-HT2A IC50
[2] = target: human 5-HT2A (h5-HT2A) receptor (Homo sapiens (Human), UniProt P28223); assay: FLIPR assay, human 5-HT2A, agonist mode; assay type: cell-based; conditions: FLIPR calcium assay
Procedure: 4. […] Vortexed vigorously for 1-2 minutes.
8. 3×compound in assay buffer was prepared: a. Reference compounds were diluted to required concentration with DMSO. […] Serial dilutions were performed; c.
ii. Calculated the percentage activation by using following equation:
% Activation=(RFU compound−RFU low control)/(RFU top concentration of reference agonist−RFU low control)×100%

[3] = DMT and 5-MeO-DMT consumed parenterally; cited from earlier work
[4] = cited from earlier work
human 5-HT2A [5] = target: T1, human 5-HT2A; conditions: cited from earlier work

SMILES | IC50 (human 5-HT2A [1]) [nM] | EC50 [2] [nM] | duration of action / effects [3] | further results
[2H]c1[nH]c2c([2H])c([2H])c([2H])c([2H])c2c1C1CC([2H])([2H])N(C)C1([2H])[2H] (stereo not drawn) [Compound 1-44, 3-(1-Methylpyrrolidin-3-yl-2,2,5,5-d4)-1H-indole-2,4,5,6,7-d5] | < 500 | > 10000 |  | 
[2H]c1[nH]c2c([2H])c([2H])c([2H])c([2H])c2c1C1CCNCC1 [Compound 1-1, 3-(piperidin-4-yl)-1H-indole-2,4,5,6,7-d5] | 500 to 10000 | 1000 to 10000 |  | 
[2H]C1([2H])CC(c2c[nH]c3ccc(OC)cc23)C([2H])([2H])N1C (stereo not drawn) [Compound 1-54, 5-Methoxy-3-(1-methylpyrrolidin-3-yl-2,2,5,5-d4)-1H-indole] | 500 to 10000 |  |  | 
[2H]C([2H])([2H])N1CCC(c2c[nH]c3ccccc23)C1 (stereo not drawn) [Compound 1-48] | 500 to 10000 |  |  | 
CN(C)CCc1c[nH]c2cccc(OP(=O)(O)O)c12 [psilocybin, 4-phosphoryloxy-N,N-dimethyltrypatmine] |  |  | 5 to 8 h | abstinence rate ([4]; 12 months follow-up): 67%; abstinence rate ([4]; six months follow-up): 80%
[2H]c1[nH]c2c([2H])c([2H])c([2H])c([2H])c2c1C1CCN(C)C1 (stereo not drawn) [Compound 1-32, 3-(1-Methylpyrrolidin-3-yl)-1H-indole-2,4,5,6,7-d5] | < 500 | > 10000 |  | 
COc1ccc2[nH]cc(CCN(C)C)c2c1 [Compound 5-MeO-DMT, 5-methoxy-N,N-dimethyltryptamine] |  |  | less than 1 h | 
CN(C)CCc1c[nH]c2ccccc12 [DMT, N,N-dimethyltryptamine] | < 500 |  | less than 1 h | binding affinity 5-HT2A (human 5-HT2A [5]): 0.237 µM
